As usually defined, the IC50 is the point on the concentration scale where inhibition reaches its midpoint.

Results on three compounds are retold here after patent publication US20220125778A1 (priority 2019, published 2022).

Chain of Purified bacterial β-glucuronidases (Purified GUS) (P05804 whole entry): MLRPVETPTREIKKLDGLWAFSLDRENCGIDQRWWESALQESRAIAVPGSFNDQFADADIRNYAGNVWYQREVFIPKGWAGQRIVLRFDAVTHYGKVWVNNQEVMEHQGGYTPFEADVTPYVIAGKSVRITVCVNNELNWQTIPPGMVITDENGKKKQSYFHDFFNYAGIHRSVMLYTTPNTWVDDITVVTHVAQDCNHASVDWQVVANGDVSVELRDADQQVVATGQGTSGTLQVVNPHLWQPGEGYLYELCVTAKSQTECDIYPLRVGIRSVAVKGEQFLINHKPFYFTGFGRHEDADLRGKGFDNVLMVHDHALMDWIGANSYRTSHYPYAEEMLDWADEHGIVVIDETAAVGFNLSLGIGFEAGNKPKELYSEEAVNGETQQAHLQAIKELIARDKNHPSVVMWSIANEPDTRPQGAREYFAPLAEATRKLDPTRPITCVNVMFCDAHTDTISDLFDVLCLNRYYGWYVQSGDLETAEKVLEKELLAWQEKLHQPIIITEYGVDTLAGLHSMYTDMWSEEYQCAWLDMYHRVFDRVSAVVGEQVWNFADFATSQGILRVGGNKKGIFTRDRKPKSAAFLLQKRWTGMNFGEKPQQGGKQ

The experiment addresses Purified bacterial β-glucuronidases (Purified GUS) (UniProt P05804). The format is biochemical. The following applies: read-out: Purified GUS Orignial IC50.
Turning to `COc1ccc(Br)c(CC(=O)N(CCO)Cc2cc3cc(C)cc(C)c3[nH]c2=O)c1` [Ex. 12, 2-(2-bromo-5-methoxy-phenyl)-N-[(6,8-dimethyl-2-oxo-1H-quinolin-3-yl)methyl]-N-(2-hydroxyethyl)acetamide], the IC50 was found to be 580 nM.
In the case of `Cc1cc(C)c2[nH]c(=O)c(CN(CCO)C(=O)Cc3ccccc3Cl)cc2c1` [Ex. 8, 2-(2-chlorophenyl)-N-[(6,8-dimethyl-2-oxo-1H-quinolin-3-yl)methyl]-N-(2-hydroxyethyl)acetamide], the IC50 was 570 nM.
In the case of `Cc1cc(C)c2[nH]c(=O)c(CN(CCO)C(=O)Cc3ccccc3Br)cc2c1` [Ex. 4, 2-(2-bromophenyl)-N-[(6,8-dimethyl-2-oxo-1H-quinolin-3-yl)methyl]-N-(2-hydroxyethyl)acetamide] it was 920 nM.
